Measurements from US9375402B2, “Oral formulations of kinase inhibitors” (VERASTEM, INC., priority 2010, dated 2016).

Assay: Solubility of SR2516 and SR3406 in selected oils
Assay type: physicochemical
Details: shaken overnight at 25 deg C, filtrate, HPLC
Procedure: This purpose of this study was to select an oil system as the vehicle base for the self-emosifying formulation based on the solubility
Procedure • 1. Add 25 mg of each API in 2 mL eppendoff vial. Record weight. • 2. Weigh out each excipient. Record weight. • 3. Beadbeater 100 sec to mix well. If all dissolved, add additional 5-10 mg each time until excess solid is present. • 4. Use a platform shaker to shake all vials overnight at 25 deg C. • 5. Observe for clarity, presence and relative amount of precipitates. • 6. Filter using spin-X (0.22 um). • 7. Dilute the filtrate to normal concentration for HPLC analysis for drug concentration and purity %. • 8. Keep the filtrate at room temperature and observe for ppt at longer time point(s) if needed. Results Analysis on Filtrate Samples

Row | Structure (SMILES) | Solubility (in Capmul MCM (F2)) [mg/g] | Solubility (in Castor oil (F4)) [mg/g] | Solubility (in Labrafil M 1944 CS (F3)) [mg/g] | Solubility (in Miglyol 812 (F1)) [mg/g] | Solubility (in Oleic acid (F5)) [mg/g]
1 | CNC(=O)c1ccccc1Nc1cc(Nc2ccc(N3CCOCC3)cc2OC)ncc1C(F)(F)F [SR-2516] | 8.4 | 1.5 | 2.2 | 0.3 | 5.8
2 | CNC(=O)c1cc(F)ccc1Nc1cc(Nc2ccc(N3CCOCC3)cc2OC)ncc1C(F)(F)F [SR-3406] | 13.6 | 4.9 | 1.0 | 0.3 | 0.4
